{
  "source": "patent US10947596B2",
  "about": "“Compositions and methods for identification, assessment, prevention, and treatment of cancer using NFS1 biomarkers and modulators” (Dana-Farber Cancer Institute, Inc., priority 2014, dated 2021)",
  "key": {"ferroptosis": {"tested_on": "ferroptosis", "settings": "cited from earlier work"}, "PTGS2": {"tested_on": "PTGS2", "settings": "cited from earlier work"}, "HIF2alpha": {"tested_on": "HIF2alpha", "assay": "Western blot for HIF2alpha in C2BBE1 cells", "format": "cell-based", "settings": "parental C2BBE1 cells, treatment for 24 hours, relative to untreated"}, "MKN74 cells": {"tested_on": "MKN74 cells", "assay": "Clonogenic growth assay in MKN74 cells", "format": "cell-based", "settings": "MKN74 stable shRNA lines infected with constitutive cDNA lentivirus (GFP, WT NFS1 or NFS1^C381A), thirteen days post-doxycycline", "experimental": "Clonogenic assays were performed for longer-term assessment of proliferative phenotypes. Three days following doxycycline (dox)-induction (of stable, inducible shRNA lines using 0.5 ug/mL dox) or infection (for constitutive shRNA expression), cells were trypsinized, counted (Countess Automated Cell Counter. Life Technologies), and re-plated in duplicate or triplicate in 6-well dishes at 750 to 3000 cells per well, depending on cell line. Clonogenic growth was monitored by RFP (pRSIT12 vector) or GFP (pRSI6 vector) expression at 1 week intervals using a laser scanning cytometer to measure colony area and numbers of colonies per well (IsoCyte, ImageXpress Velos). Two to three weeks after plating cells, cells were stained using crystal violet as an additional visualization of colony formation. […]\nKnockdown of NFS1 inhibits clonogenic cell growth. […] Three days post-dox-induction, cells were trypsinized, counted, and plated at low density (750 cells per well of a 6-well dish) for assaying clonogenic growth. Additional cells were also collected and assessed by q-RT-PCR for NFS1 knockdown. Clonogenic growth (relative colony area shown in FIG. 5, as well as the number of objects) was monitored by red fluorescent protein (RFP) expression over two weeks scanning the plates on a laser scanning cytometer (IsoCyte, ImageXpress Velos). […]"}, "aconitase": {"tested_on": "aconitase", "assay": "Aconitase activity colorimetric assay in MKN74 lysates", "format": "cell-based", "settings": "MKN74, constitutive shRNA or cDNA lentivirus, seven days post-infection", "experimental": "Aconitase activity was assessed three to eleven days post-infection or dox induction in one million cells using the Aconitase Activity calorimetric Assay Kit (Biovision K716-100). Succinate dehydrogenase activity was assessed using the Succinate Dehydrogenase Activity Colorimetric Assay Kit (Biovision K660-100).\n(§1) In order to confirm that such pharmacodynamic markers associated with NFS1 can be used as adjuncts or surrogate markers for directly assessing NFS1 modulation, several experiments were performed. […] The stable lines were replated at 3 days post-dox, cultured for 3 days further, and assessed for NFS1 mRNA knockdown (top right panel) or PTGS2 (Cox2) mRNA levels (bottom right panel) by q-RT-PCR. […]\nSimilarly, after 7 days of NFS1 knockdown, decreases in aconitase activity and ferritin protein levels, along with upregulation of TFRC protein we observed (FIG. 15). […] These cells were then either lysed in RIPA buffer, quantified, and equally loaded on a SDS-PAGE gel for analysis by Western by staining for TfRC, NFS1, FTL, or GAPDH (loading control); or trypsinized, counted, lysed, and analyzed for aconitase activity. […] These cells were then either lysed in RIPA buffer, quantified, and equally loaded on a SDS-PAGE gel for analysis by Western and staining for NFS1 and GAPDH; or trypsinized, counted, lysed and analyzed for succinate dehydrogenase activity and aconitase activity. […]"}, "ferritin": {"tested_on": "ferritin", "assay": "Western blot for ferritin (FTH1/FTL) in MKN74", "format": "cell-based", "settings": "MKN74, constitutive shRNA or cDNA lentivirus, seven days post-infection", "experimental": "Cells were lysed in NP-40 lysis buffer (Boston BioProducts) supplemented with 1× Halt Protease/Phosphatase Inhibitor Cocktail (Pierce Biotechnology, Inc.), 1 mM Dithiothreitol, and 1 mM Phenylmethanesulfonylfluoride. Lysates were cleared by centrifugation and quantified using a BCA Protein Assay Kit (Pierce Biotechnology, Inc.). Lysates were resolved by SDS-PAGE (using Mini-Protean TGX gradient gels, Bio-Rad Laboratories), transferred to nitrocellulose (using the iBlot Gel, Transfer Device and Dry Blotting System, Life Technologies) and blocked in 5% nonfat milk (Blotting-Grade Blocker, Bio-Rad). […] Peroxidase-conjugated secondary antibodies (Donkey anti-rabbit IgG or Donkey anti-mouse IgG, Jackson ImmunoResearch Laboratories, Inc.) were used at 1:5000 in 5% blocking solution, and protein bands were detected using Pico SuperSignal West Pico Chemiluminescent substrate (Thermo Scientific, Pierce Biotechnology, Inc.).\nas §1"}},
  "note": "Entries after “also recorded” stand apart in the source; their conditions may differ.",
  "data": [
    {"compound": "COC(=O)c1ccc([C@H]2c3[nH]c4ccccc4c3C[C@H](C(=O)OC)N2C(=O)CCl)cc1", "note": "[1S3R-RSL3, (1S,3R)-RSL3]", "values": [
      {"measurement": "ferroptosis", "setting": "ferroptosis", "result": "induce ferroptosis"},
      {"measurement": "PTGS2 expression", "setting": "PTGS2", "result": "upregulation"}
    ]},
    {"compound": "[Cl][Co][Cl]", "note": "[cobalt chloride]", "values": [
      {"measurement": "HIF2alpha levels", "setting": "HIF2alpha", "result": "modulation of HIF2alpha levels"}
    ]},
    {"compound": "NFS1^C381A: mutant NFS1 that is catalytically dead due to a C381A mutation, dominant negative, expressed from lentiviral cDNA", "values": [
      {"measurement": "clonogenic growth", "setting": "MKN74 cells", "result": "growth inhibitory effects comparable to that of NFS1-sh5; also recorded: strongly inhibited cell growth"},
      {"measurement": "aconitase activity", "setting": "aconitase", "result": "decrease"},
      {"measurement": "ferritin (FTH1) levels", "setting": "ferritin", "result": "decrease"}
    ]}
  ]
}
